Reference: patent publication US8440442B2, “Method of assaying 5-FU” (Myriad Genetics, Inc, priority 2009, dated 2013)

Target: T1, dihydropyrimidine dehydrogenase (DPD) (Homo sapiens, UniProt Q12882)
T1 construct: from tissue; host or cells: donor whole blood (K2EDTA), plasma separated from it, and WBC/buffy coat
T1 sequence (Q12882 4-1025): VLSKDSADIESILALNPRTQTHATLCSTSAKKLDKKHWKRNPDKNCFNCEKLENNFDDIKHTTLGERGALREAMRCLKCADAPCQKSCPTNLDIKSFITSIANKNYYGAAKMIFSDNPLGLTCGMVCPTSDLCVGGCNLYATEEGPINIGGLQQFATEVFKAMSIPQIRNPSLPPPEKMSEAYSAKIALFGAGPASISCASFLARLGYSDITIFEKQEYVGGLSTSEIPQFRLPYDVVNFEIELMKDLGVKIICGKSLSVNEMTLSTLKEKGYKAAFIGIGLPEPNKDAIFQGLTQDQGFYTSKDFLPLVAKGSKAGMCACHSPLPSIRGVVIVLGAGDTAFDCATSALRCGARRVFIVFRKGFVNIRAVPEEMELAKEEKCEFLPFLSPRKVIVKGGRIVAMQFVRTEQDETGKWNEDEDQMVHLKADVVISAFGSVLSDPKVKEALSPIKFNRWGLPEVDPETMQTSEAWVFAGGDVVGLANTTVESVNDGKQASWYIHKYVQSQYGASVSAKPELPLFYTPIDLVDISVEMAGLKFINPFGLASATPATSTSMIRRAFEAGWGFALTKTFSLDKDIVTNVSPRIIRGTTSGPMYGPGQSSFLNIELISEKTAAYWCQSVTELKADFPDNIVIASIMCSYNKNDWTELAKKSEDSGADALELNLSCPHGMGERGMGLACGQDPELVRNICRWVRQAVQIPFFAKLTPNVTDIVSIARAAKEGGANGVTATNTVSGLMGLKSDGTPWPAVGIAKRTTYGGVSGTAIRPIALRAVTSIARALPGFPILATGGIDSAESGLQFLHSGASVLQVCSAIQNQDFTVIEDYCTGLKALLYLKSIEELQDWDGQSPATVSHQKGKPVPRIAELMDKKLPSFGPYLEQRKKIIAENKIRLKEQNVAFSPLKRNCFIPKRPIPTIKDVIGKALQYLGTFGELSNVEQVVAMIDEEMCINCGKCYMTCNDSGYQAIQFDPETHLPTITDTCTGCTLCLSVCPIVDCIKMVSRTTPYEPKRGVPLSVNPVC
Test: Amount of DPD inactivator needed: gimeracil in 5-FU spiked blood, plasma with or without added WBC/buffy coat
Format: biochemical
Conditions: for Average 5-FU Measurement Initial / Average 5-FU Measurement 24-hour: in ng/mL; for Average 5-FU Measurement 24-hour: plasma 24 hours at room temperature
Method: In the following illustrative examples, 5-FU was measured using an antibody-based agglutination assay on the Olympus AU680 Analyzer using an antibody disclosed in U.S. Pat. No. 7,205,116. Specifically, the concentration of 5-FU in a sample is determined based on the absorbance of a sample, which is determined by the amount of aggregation by the nanoparticles. The system requires two reagents, which when mixed in the absence of free 5-FU will form large aggregates of nanoparticles and scatter light to result in a higher absorption value. In the presence of free 5-FU, the agglutination reaction becomes somewhat inhibited and scattering of light is less, causing a lower absorption value. The instrument is calibrated twice monthly, and a curve is generated (Absorbance vs. 5-FU concentration). Absorbance values from individual samples are compared against this curve to determine concentration.
Generally in the agglutination assay, 95 μl of a buffer containing 5-FU-labeled amino-dextran is pipetted to a cuvette, followed by 7 μL of a filtered plasma sample. The sample and reagent are mixed and then incubated for about 3.5 minutes. 95 μl of 5-FU antibody-conjugated nanoparticles is pipetted into the cuvette and mixed. The complete reaction incubates for about 6.2 minutes. A series of 27 measurements at 600 nm are taken at regular intervals by the AU680 analyzer throughout this process, and 5-FU concentration is calculated using the measurements from two specific time points.
Four tubes of blood (spray-on K2EDTA tubes, 10 mL) was drawn from each of six donors, and gently inverted several times to mix anti-coagulant. All donor blood was pooled into one large tube, and two equal aliquots of that pooled blood were transferred to two new tubes. The remaining blood was used to isolate white blood cell (WBC)/buffy coat. WBC/buffy coat was isolated by centrifuging the remaining blood tubes, extracting and pooling the WBC layer from each tube, centrifuging again to enrich the WBC/buffy coat, and separating the enriched WBC/buffy coat layer into a clean tube. One volume of blood was spiked with a calculated volume of stock 5-FU (at 200 ng/μL) for a final concentration of 500 ng/mL, and the other volume of blood was spiked with a calculated volume of stock 5-FU (at 200 ng/μL) for a final concentration of 1500 ng/mL. Three sets of eight tubes each were prepared to aliquot the spiked blood into. In addition, a negative control was used that was inoculated with 300 μL of 30% methanol/water instead of gimeracil. To four of the eight tubes per set, the low concentration 5-FU blood was aliquotted, 6 mL each tube. The high concentration 5-FU blood was aliquotted to the remaining four tubes per set, as well as to the negative control tube, 6 mL each. The eight tubes were then inoculated with either 300 μL of 0.12 mg/mL gimeracil in 30% MeOH/water or 300 μL of 0.04 mg/mL gimeracil. Blood tubes were inverted to mix the gimeracil, and then sat at room temperature for 45 minutes. Blood tubes were centrifuged at 2000×g for 10 minutes and room temperature. Plasma was aspirated immediately after centrifugation and dispensed into clean cryovials. The WBC/buffy coat was added to designated tubes of plasma, and vortexed to evenly mix. Plasma samples were run under standard conditions for the AU680 analyzer (200 μL, spin for 15 minutes at 12,500 rpm). Measurements were taken immediately after adding WBC/buffy coat (“initial”), as well as 24 hours (“24-hour”), after addition of WBC/buffy coat. For the 24-hour measurement, plasma was stored at room temperature for the first 24 hours of the experiment to simulate overnight ambient shipping.

[1] = target 5-FU 500 ng/mL, gimeracil 2000 ng/mL, NO WBC
[2] = target 5-FU 500 ng/mL, gimeracil 2000 ng/mL, w/WBC
[3] = target 5-FU 500 ng/mL, gimeracil 6000 ng/mL, NO WBC
[4] = target 5-FU 500 ng/mL, gimeracil 6000 ng/mL, w/WBC
[5] = target 5-FU 1500 ng/mL, gimeracil 2000 ng/mL, NO WBC
[6] = target 5-FU 1500 ng/mL, gimeracil 2000 ng/mL, w/WBC
[7] = target 5-FU 1500 ng/mL, gimeracil 6000 ng/mL, NO WBC
[8] = target 5-FU 1500 ng/mL, gimeracil 6000 ng/mL, w/WBC

% change (Initial vs. 24-hour) [1]: −2.9%
Average 5-FU Measurement Initial (target 5-FU 500 ng/mL, gimeracil 2000 ng/mL, NO WBC, initial): 488.3
Average 5-FU Measurement 24-hour [1]: 474.3
% change (Initial vs. 24-hour) [2]: 2.7%
Average 5-FU Measurement Initial (target 5-FU 500 ng/mL, gimeracil 2000 ng/mL, w/WBC, immediately after adding WBC/buffy coat): 465.8
Average 5-FU Measurement 24-hour [2]: 478.6
% change (Initial vs. 24-hour) [3]: 1.7%
Average 5-FU Measurement Initial (target 5-FU 500 ng/mL, gimeracil 6000 ng/mL, NO WBC, initial): 479.1
Average 5-FU Measurement 24-hour [3]: 487.3
% change (Initial vs. 24-hour) [4]: 1.0%
Average 5-FU Measurement Initial (target 5-FU 500 ng/mL, gimeracil 6000 ng/mL, w/WBC, initial): 473.7
Average 5-FU Measurement 24-hour [4]: 478.6
% change (Initial vs. 24-hour) [5]: −0.5%
Average 5-FU Measurement Initial (target 5-FU 1500 ng/mL, gimeracil 2000 ng/mL, NO WBC, initial): 1434.9
Average 5-FU Measurement 24-hour [5]: 1427.3
% change (Initial vs. 24-hour) [6]: 2.9%
Average 5-FU Measurement Initial (target 5-FU 1500 ng/mL, gimeracil 2000 ng/mL, w/WBC, initial): 1377.7
Average 5-FU Measurement 24-hour [6]: 1418.1
% change (Initial vs. 24-hour) [7]: 2.0%
Average 5-FU Measurement Initial (target 5-FU 1500 ng/mL, gimeracil 6000 ng/mL, NO WBC, initial): 1430.3
Average 5-FU Measurement 24-hour [7]: 1458.3
% change (Initial vs. 24-hour) [8]: −0.9%
Average 5-FU Measurement Initial (target 5-FU 1500 ng/mL, gimeracil 6000 ng/mL, w/WBC, initial): 1402.9
Average 5-FU Measurement 24-hour [8]: 1390.1
SMILES: Oc1cc(O)c(Cl)cn1 [Gimeracil, 5-chloro-2,4-dihydroxypyridine]
